The Kd is the concentration at which binding is half-saturated.

This passage reports Kd results from article PMC6983068, “Identifying Ortholog Selective Fragment Molecules for Bacterial Glutaredoxins by NMR and Affinity Enhancement by Modification with an Acrylamide Warhead” (Molecules, 2019).

Experiment [1] addresses T1, BrmGRX (Brucella melitensis, UniProt Q8YJA2).
T1 construct: gene BMEI0184
As to the kind of experiment: biochemical. The format is binding.

In experiment [2] the target is T2, PaGRX (Pseudomonas aeruginosa, UniProt Q9HU55).
T2 construct: gene grx
T2 sequence (Q9HU55 whole entry): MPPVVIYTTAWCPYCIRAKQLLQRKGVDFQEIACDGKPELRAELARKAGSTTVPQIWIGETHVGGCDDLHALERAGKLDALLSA
Put plainly: biochemical.

Experiment [3] has as its target T3, hGRX1 (Homo sapiens, UniProt P35754).
T3 sequence (P35754 2-106): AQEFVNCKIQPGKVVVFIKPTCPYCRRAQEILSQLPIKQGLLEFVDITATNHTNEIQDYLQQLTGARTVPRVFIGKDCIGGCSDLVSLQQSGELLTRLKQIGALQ
The format is binding. The conditions noted are these: read-out: hGRX1 Kd ± S.D.

T1 sequence (Q8YJA2 1-92): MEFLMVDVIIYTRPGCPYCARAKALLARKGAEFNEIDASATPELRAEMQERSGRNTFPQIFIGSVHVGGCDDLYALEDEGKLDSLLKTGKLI

Consider `O=C(O)c1cc(-c2ccco2)[nH]n1` [RK104], for which the Kd was 900 ± 150 µM in experiment [1], 720 ± 160 µM in experiment [2] and 2890 ± 470 µM in experiment [3].
In the same order, the values of `Cn1nc(-c2ccco2)cc1C(=O)O` [RK144] are 5240 ± 920 µM, 1920 ± 420 µM and 5420 ± 900 µM.
With `O=C(O)c1ccc(-n2cccn2)cc1` [RK192], the equilibrium dissociation constant (Kd) in experiment [1] was determined as 5560 ± 510 µM; in experiment [2], 5260 ± 1120 µM; in experiment [3], 5050 ± 1270 µM.
Consider `O=C(O)c1ccc(-n2cccc2)cc1` [RK207], for which the Kd in experiment [2] stood at 1900 ± 340 µM; in experiment [3], 2450 ± 520 µM.
In the case of `Cc1cc2ncc(C(=O)O)c(C)n2n1` [RK208], the Kd in experiment [1] is 2280 ± 300 µM; in experiment [2], 560 ± 80 µM; in experiment [3], 1610 ± 190 µM.
In the case of `Cn1nc(C(=O)O)cc1-c1ccccc1` [RK246], the equilibrium dissociation constant (Kd) in experiment [2] was determined as 8480 ± 2060 µM; in experiment [3], 5220 ± 1160 µM.
As to `CN1CCN(C)c2cc(CN)ccc21` [RK395], the Kd came to 5490 ± 3220 µM in experiment [1], 510 ± 370 µM in experiment [2] and 1860 ± 1150 µM in experiment [3].
